Experimental data published in PubChem BioAssay AID1745844 (Carcinogenic Potency Database (CPDB), 2022).
Several values for one entry are separate records, joined by “and”; a condition that tells them apart may be missing. Identical values can stand only once. Activity calls are given as the source filed them. How the calls were made is not given here.

Tested on: rodent lifetime carcinogenesis bioassay, tumor incidence TD50
Assay: chronic cancer bioassays in animals – CPDB, compiled studies (AID 1745844)

CCCCOC(=O)COc1ccc(Cl)cc1Cl
carcinogen call (mouse, strain B6AKF1, females, oral dosing, site: any site (literature study), lesion: several types, types named in the paper, dosed 76 weeks, study length 76 weeks): negative (inactive)
carcinogen call (mouse, strain B6AKF1, females, oral dosing, site: liver, lesion: hepatoma, dosed 76 weeks, study length 76 weeks): negative (inactive)
carcinogen call (mouse, strain B6AKF1, females, oral dosing, site: lung, lesion: adenoma, dosed 76 weeks, study length 76 weeks): negative (inactive)
carcinogen call (mouse, strain B6AKF1, males, oral dosing, site: any site (literature study), lesion: several types, types named in the paper, dosed 76 weeks, study length 76 weeks): negative (inactive)
carcinogen call (mouse, strain B6AKF1, males, oral dosing, site: liver, lesion: hepatoma, dosed 76 weeks, study length 76 weeks): negative (inactive)
carcinogen call (mouse, strain B6AKF1, males, oral dosing, site: lung, lesion: adenoma, dosed 76 weeks, study length 76 weeks): negative (inactive)
TD50 (mouse, strain B6C3F1, females, oral dosing, site: any site (literature study), lesion: several types, types named in the paper, dosed 76 weeks, study length 76 weeks): 29.7 mg/kg/day (inactive)
carcinogen call (mouse, strain B6C3F1, females, oral dosing, site: liver, lesion: hepatoma, dosed 76 weeks, study length 76 weeks): negative (inactive)
carcinogen call (mouse, strain B6C3F1, females, oral dosing, site: lung, lesion: several types, types named in the paper, dosed 76 weeks, study length 76 weeks): negative (inactive)
TD50 (mouse, strain B6C3F1, males, oral dosing, site: any site (literature study), lesion: several types, types named in the paper, dosed 76 weeks, study length 76 weeks): 38.1 mg/kg/day (inactive)
TD50 (mouse, strain B6C3F1, males, oral dosing, site: liver, lesion: hepatoma, dosed 76 weeks, study length 76 weeks): 122 mg/kg/day (inactive)
TD50 (mouse, strain B6C3F1, males, oral dosing, site: lung, lesion: adenoma, dosed 76 weeks, study length 76 weeks): 59 mg/kg/day (inactive)

O=C(O)O
TD50 (mouse, strain B6C3F1, males, in drinking water, site: liver, lesion: hepatocellular adenoma, dosed 52 weeks, study length 52 weeks): 1330 mg/kg/day (inactive)
TD50 (rat, strain F344/DuCrj, males, in feed, site: urinary bladder, lesion: carcinoma, dosed 104 weeks, study length 104 weeks): 5350 mg/kg/day (inactive)
TD50 (rat, strain Wistar-random, females, in feed, site: urinary bladder, lesion: several types, types named in the paper, dosed 130 weeks, study length 130 weeks): 12800 mg/kg/day
TD50 (rat, strain Wistar-random, females, in feed, site: urinary bladder, lesion: transitional-cell carcinoma, dosed 130 weeks, study length 130 weeks): 37100 mg/kg/day
TD50 (rat, strain Wistar-random, females, in feed, site: urinary bladder, lesion: transitional-cell papilloma, dosed 78 weeks, study length 78 weeks): 8280 mg/kg/day
TD50 (rat, strain Wistar-random, females, in feed, site: urinary bladder, lesion: transitional-cell papilloma, dosed 130 weeks, study length 130 weeks): 20700 mg/kg/day
TD50 (rat, strain Wistar-random, males, in feed, site: urinary bladder, lesion: several types, types named in the paper, dosed 78 weeks, study length 78 weeks): 6400 mg/kg/day
TD50 (rat, strain Wistar-random, males, in feed, site: urinary bladder, lesion: several types, types named in the paper, dosed 121 weeks, study length 121 weeks): 13200 mg/kg/day
TD50 (rat, strain Wistar-random, males, in feed, site: urinary bladder, lesion: transitional-cell carcinoma, dosed 78 weeks, study length 78 weeks): 12900 mg/kg/day
TD50 (rat, strain Wistar-random, males, in feed, site: urinary bladder, lesion: transitional-cell carcinoma, dosed 121 weeks, study length 121 weeks): 54400 mg/kg/day
TD50 (rat, strain Wistar-random, males, in feed, site: urinary bladder, lesion: transitional-cell papilloma, dosed 78 weeks, study length 78 weeks): 13100 mg/kg/day
TD50 (rat, strain Wistar-random, males, in feed, site: urinary bladder, lesion: transitional-cell papilloma, dosed 121 weeks, study length 121 weeks): 17800 mg/kg/day

CC(=O)NNc1ccc(CO)cc1
TD50 (mouse, strain Swiss albino, females, in drinking water, site: blood vessels, lesion: several types, types named in the paper, dosed 115 weeks, study length 115 weeks): 287 mg/kg/day
TD50 (mouse, strain Swiss albino, females, in drinking water, site: lung, lesion: several types, types named in the paper, dosed 115 weeks, study length 115 weeks): 329 mg/kg/day
TD50 (mouse, strain Swiss albino, males, in drinking water, site: blood vessels, lesion: several types, types named in the paper, dosed 115 weeks, study length 115 weeks): 252 mg/kg/day
carcinogen call (mouse, strain Swiss albino, males, in drinking water, site: liver, lesion: hepatoma, dosed 115 weeks, study length 115 weeks): negative (inactive)
TD50 (mouse, strain Swiss albino, males, in drinking water, site: lung, lesion: several types, types named in the paper, dosed 115 weeks, study length 115 weeks): 208 mg/kg/day

O=C1OC(=O)c2ccccc21
carcinogen call (mouse, strain B6C3F1, females, in feed, site: any site (literature study), lesion: several types, types named in the paper, dosed 104 weeks, study length 104 weeks): negative (inactive)
carcinogen call (mouse, strain B6C3F1, males, in feed, site: any site (literature study), lesion: several types, types named in the paper, dosed 104 weeks, study length 104 weeks): negative (inactive)
TD50 (mouse, strain B6C3F1, males, in feed, site: liver, lesion: hepatocellular adenoma + hepatocellular carcinoma + neoplastic nodule, dosed 104 weeks, study length 104 weeks): 7460 mg/kg/day
TD50 (rat, strain Fischer 344, females, in feed, site: any site (literature study), lesion: several types, types named in the paper, dosed 105 weeks, study length 105 weeks): 4500 mg/kg/day
TD50 (rat, strain Fischer 344, females, in feed, site: lung, lesion: alveolar/bronchiolar adenoma, dosed 105 weeks, study length 105 weeks): 6230 mg/kg/day (inactive)
carcinogen call (rat, strain Fischer 344, males, in feed, site: any site (literature study), lesion: several types, types named in the paper, dosed 105 weeks, study length 105 weeks): negative (inactive)

CCCCCCCCCCCCCCCC(=O)OC/C=C(C)/C=C/C=C(C)/C=C/C1=C(C)CCCC1(C)C
carcinogen call (mouse, strain ICR/Jcl, males, in drinking water, site: forestomach, lesion: one or several types, types not named, dosed 66 weeks, study length 66 weeks): negative (inactive)

Nc1cc(S(=O)(=O)[O-])cc2cc(S(=O)(=O)[O-])c(N=Nc3ccc(-c4ccc(N=Nc5c(S(=O)(=O)[O-])cc6cc(S(=O)(=O)[O-])cc(N)c6c5O)c(O)c4)cc3O)c(O)c12.[Cu].[Cu].[Na+].[Na+].[Na+].[Na+]
TD50 (mouse, strain B6C3F1, females, in feed, site: any site (literature study), lesion: several types, types named in the paper, dosed 103 weeks, study length 106 weeks): 1530 mg/kg/day
TD50 (mouse, strain B6C3F1, females, in feed, site: liver, lesion: hepatoblastoma + hepatocellular carcinoma, dosed 103 weeks, study length 106 weeks): 4000 mg/kg/day
TD50 (mouse, strain B6C3F1, females, in feed, site: liver, lesion: hepatocellular adenoma + hepatoblastoma + hepatocellular carcinoma, dosed 103 weeks, study length 106 weeks): 711 mg/kg/day
TD50 (mouse, strain B6C3F1, females, in feed, site: liver, lesion: hepatocellular adenoma + hepatocellular carcinoma, dosed 103 weeks, study length 106 weeks): 711 mg/kg/day
TD50 (mouse, strain B6C3F1, females, in feed, site: liver, lesion: hepatocellular adenoma, dosed 103 weeks, study length 106 weeks): 774 mg/kg/day
TD50 (mouse, strain B6C3F1, females, in feed, site: liver, lesion: hepatocellular carcinoma, dosed 103 weeks, study length 106 weeks): 4570 mg/kg/day
TD50 (mouse, strain B6C3F1, males, in feed, site: any site (literature study), lesion: several types, types named in the paper, dosed 103 weeks, study length 105 weeks): 1910 mg/kg/day
TD50 (mouse, strain B6C3F1, males, in feed, site: jejunum, lesion: carcinoma, dosed 103 weeks, study length 105 weeks): 20300 mg/kg/day
carcinogen call (mouse, strain B6C3F1, males, in feed, site: kidney, lesion: tubule adenoma + tubule carcinoma, dosed 103 weeks, study length 105 weeks): e
TD50 (mouse, strain B6C3F1, males, in feed, site: kidney, lesion: tubule adenoma, dosed 103 weeks, study length 105 weeks): 195000 mg/kg/day
carcinogen call (mouse, strain B6C3F1, males, in feed, site: kidney, lesion: tubule carcinoma, dosed 103 weeks, study length 105 weeks): e
TD50 (mouse, strain B6C3F1, males, in feed, site: liver, lesion: hepatocellular adenoma + hepatoblastoma + hepatocellular carcinoma, dosed 103 weeks, study length 105 weeks): 1080 mg/kg/day
TD50 (mouse, strain B6C3F1, males, in feed, site: liver, lesion: hepatocellular adenoma + hepatocellular carcinoma, dosed 103 weeks, study length 105 weeks): 1080 mg/kg/day
TD50 (mouse, strain B6C3F1, males, in feed, site: liver, lesion: hepatocellular adenoma, dosed 103 weeks, study length 105 weeks): 1210 mg/kg/day
TD50 (mouse, strain B6C3F1, males, in feed, site: liver, lesion: hepatocellular carcinoma, dosed 103 weeks, study length 105 weeks): 2990 mg/kg/day
TD50 (rat, strain Fischer 344, females, in feed, site: any site (literature study), lesion: several types, types named in the paper, dosed 103 weeks, study length 104 weeks): 653 mg/kg/day
TD50 (rat, strain Fischer 344, females, in feed, site: uterus, lesion: endometrial stromal polyp, dosed 103 weeks, study length 104 weeks): 83.5 mg/kg/day (inactive)
TD50 (rat, strain Fischer 344, males, in feed, site: any site (literature study), lesion: several types, types named in the paper, dosed 103 weeks, study length 104 weeks): 921 mg/kg/day
TD50 (rat, strain Fischer 344, males, in feed, site: forestomach, lesion: squamous-cell carcinoma + squamous-cell papilloma, dosed 103 weeks, study length 104 weeks): 2350 mg/kg/day
carcinogen call (rat, strain Fischer 344, males, in feed, site: forestomach, lesion: squamous-cell carcinoma, dosed 103 weeks, study length 104 weeks): e
TD50 (rat, strain Fischer 344, males, in feed, site: forestomach, lesion: squamous-cell papilloma, dosed 103 weeks, study length 104 weeks): 3140 mg/kg/day
TD50 (rat, strain Fischer 344, males, in feed, site: liver, lesion: hepatocellular adenoma + hepatoblastoma + hepatocellular carcinoma, dosed 103 weeks, study length 104 weeks): 5050 mg/kg/day
TD50 (rat, strain Fischer 344, males, in feed, site: palate, lesion: basosquamous tumor, benign + squamous-cell carcinoma + squamous-cell papilloma, dosed 103 weeks, study length 104 weeks): 1380 mg/kg/day
TD50 (rat, strain Fischer 344, males, in feed, site: palate, lesion: basosquamous tumor, benign, dosed 103 weeks, study length 104 weeks): 11500 mg/kg/day
TD50 (rat, strain Fischer 344, males, in feed, site: palate, lesion: squamous-cell carcinoma + squamous-cell papilloma, dosed 103 weeks, study length 104 weeks): 1570 mg/kg/day
TD50 (rat, strain Fischer 344, males, in feed, site: palate, lesion: squamous-cell carcinoma, dosed 103 weeks, study length 104 weeks): 9510 mg/kg/day
TD50 (rat, strain Fischer 344, males, in feed, site: palate, lesion: squamous-cell papilloma, dosed 103 weeks, study length 104 weeks): 1920 mg/kg/day

Nc1c(Cl)cc(Cl)cc1Cl
TD50 (mouse, strain CD-1 HaM/ICR, females, in feed, site: any site (literature study), lesion: several types, types named in the paper, dosed 68 weeks, study length 77 weeks): 914 mg/kg/day (inactive)
TD50 (mouse, strain CD-1 HaM/ICR, females, in feed, site: liver, lesion: several types, types named in the paper, dosed 68 weeks, study length 77 weeks): 927 mg/kg/day (inactive)
TD50 (mouse, strain CD-1 HaM/ICR, females, in feed, site: lung, lesion: several types, types named in the paper, dosed 68 weeks, study length 77 weeks): 1370 mg/kg/day (inactive)
TD50 (mouse, strain CD-1 HaM/ICR, males, in feed, site: all sites, lesion: all vascular tumors, dosed 68 weeks, study length 77 weeks): 273 mg/kg/day and 259 mg/kg/day
TD50 (mouse, strain CD-1 HaM/ICR, males, in feed, site: any site (literature study), lesion: several types, types named in the paper, dosed 68 weeks, study length 77 weeks): 206 mg/kg/day
TD50 (mouse, strain CD-1 HaM/ICR, males, in feed, site: liver, lesion: hepatoma, dosed 68 weeks, study length 77 weeks): 560 mg/kg/day
TD50 (mouse, strain CD-1 HaM/ICR, males, in feed, site: liver, lesion: several types, types named in the paper, dosed 68 weeks, study length 77 weeks): 452 mg/kg/day
TD50 (mouse, strain CD-1 HaM/ICR, males, in feed, site: lung, lesion: several types, types named in the paper, dosed 68 weeks, study length 77 weeks): 385 mg/kg/day (inactive)
TD50 (rat, strain Charles River CD (Sprague-Dawley), males, in feed, site: any site (literature study), lesion: several types, types named in the paper, dosed 77 weeks, study length 116 weeks): 45.9 mg/kg/day (inactive)
carcinogen call (rat, strain Charles River CD (Sprague-Dawley), males, in feed, site: liver, lesion: several types, types named in the paper, dosed 77 weeks, study length 116 weeks): negative (inactive)

C=C1CC[C@H](O)C/C1=C/C=C1\CCC[C@]2(C)[C@@H]([C@H](C)CC[C@@H](O)C(C)(C)O)CC[C@@H]12
TD50 (rat, strain Slc-Wistar, males, in feed, site: adrenal medulla, lesion: pheochromocytoma, dosed 57 weeks, study length 57 weeks): 0.803 mg/kg/day
carcinogen call (rat, strain Slc-Wistar, males, in feed, site: stomach, glandular, lesion: adenocarcinoma, dosed 57 weeks, study length 57 weeks): negative (inactive)
